Here are results for 13 compounds from ChEMBL document CHEMBL1201862, “PubChem BioAssay data set” (2004).

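1) Cells in 96-well plates. 2) Compound, 48 h, 5 concentrations. 3) Linear interpolation between surrounding doses. 4) Unreached endpoint = highest concentration. GI50 = concentration required for 50% inhibition of growth.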 The source made the active and inactive calls. Cut-off read from the data, not from the text of the source: active = GI50 up to about 1.1 µM and inactive = higher.

Some test systems named below: OVCAR-3; SN12C; SK-MEL-28; NCI-H23; MCF7; K562; A549; HOP-62; MOLT-4; OVCAR-8; DU-145; NCI-H226; MDA-N; A498; LOX IMVI; HCT-15; HCC 2998; Hs-578T; SF-268.
What all share (test): NCI tumour cell line growth inhibition, 48 h

As for `Cc1ccc(S(=O)(=O)OC2CC(C(C)(C)C)CCC2c2ccccc2)cc1` (centres undefined), the GI50 in the test with OVCAR-3 was 93.5 µM (inactive); in the test on SN12C, > 100 µM (inactive); in the test on SK-MEL-28 it was > 100 µM (inactive); with NCI-H23, > 100 µM (inactive); in the test on MCF7, 35.1 µM (inactive); in the test on K562, 53.5 µM (inactive). The GI50 with A549 is 40.6 µM (inactive); in the test with HOP-62, 53 µM (inactive); in the test with MOLT-4, 44.6 µM (inactive); with OVCAR-8 it was > 100 µM (inactive); in the test with DU-145, > 100 µM (inactive); in the test on NCI-H226, > 100 µM (inactive). The GI50 in the test with MDA-N was 99.8 µM (inactive); with A498, > 100 µM (inactive); in the test on LOX IMVI it was > 100 µM (inactive); in the test on HCT-15 it was above 100 µM.
As for `CNC(=S)N/N=C/c1ccc([N+](=O)[O-])s1`, the GI50 in the test with OVCAR-3 is 2.23 µM (inactive); in the test with SN12C it was > 10 µM (inactive); with SK-MEL-28, > 10 µM (inactive); in the test on HCC 2998 it was 8.15 µM (inactive); with NCI-H23, > 10 µM (inactive); with Hs-578T it was > 10 µM (inactive). For the same compound, the GI50 with K562 was > 10 µM (inactive); in the test on A549, 7.38 µM (inactive); with HOP-62, > 10 µM (inactive); in the test on MOLT-4 it was > 10 µM (inactive); with OVCAR-8, 7.26 µM (inactive); in the test on DU-145 it was > 10 µM (inactive). In addition, the GI50 is > 10 µM (inactive) in the test on NCI-H226; > 10 µM (inactive) with MDA-N; > 10 µM (inactive) with A498; > 10 µM (inactive) with LOX IMVI; > 10 µM (inactive) in the test on SF-268; above 10 µM with HCT-15.
As for `CCCCCCCCCC[C@@H](O)[C@H]1CC[C@H]([C@H]2CC[C@H]([C@H](O)CCCCCCCCCC[C@@H]3CC(CC(C)=O)C(=O)O3)O2)O1` (some centres undefined), the GI50 with OVCAR-3 is 15.1 µM (inactive); with SN12C, 33.4 µM (inactive); in the test with SK-MEL-28, > 50 µM (inactive); with HCC 2998, 41.3 µM (inactive); in the test with NCI-H23, 1.7 µM (inactive); in the test on Hs-578T, 7.19 µM (inactive). The GI50 with MCF7 was 13.8 µM (inactive); with K562, 0.374 µM (active); with A549 it was 9.93 µM (inactive); with HOP-62, 46.5 µM (inactive); with MOLT-4 it was 3.77 µM (inactive); in the test with OVCAR-8, 7.66 µM (inactive). Also, the GI50 with DU-145 was > 50 µM (inactive); in the test with NCI-H226 it was 23.8 µM (inactive); in the test on A498, > 28.5 µM (inactive); in the test on LOX IMVI it was 1.12 µM (inactive); in the test with SF-268, > 50 µM (inactive); in the test on HCT-15, 28.3 µM.
For `N#CCc1nc(-c2cc3c(ccc4ccccc43)oc2=O)cs1`, the GI50 in the test with SN12C was 57.8 µM (inactive); in the test with SK-MEL-28, 72.6 µM (inactive); in the test with HCC 2998, 69.3 µM (inactive); in the test on Hs-578T, 20.3 µM (inactive); in the test with MCF7 it was 38.3 µM (inactive); in the test with K562, > 100 µM (inactive). Also, the GI50 in the test with A549 was 50 µM (inactive); with HOP-62, 16.7 µM (inactive); in the test with MOLT-4, > 100 µM (inactive); with OVCAR-8 it was 28.5 µM (inactive); in the test on DU-145 it was 23.9 µM (inactive); in the test on NCI-H226, 24.7 µM (inactive). Moreover, the GI50 in the test on LOX IMVI is > 100 µM (inactive); in the test with SF-268, 31.6 µM (inactive); in the test on HCT-15, 69.3 µM.
With `Cc1ccc(S(=O)(=O)NC(=O)NC(CC(=O)O)C(=O)O)cc1` (centres undefined), the GI50 with SN12C, in the test on SK-MEL-28, with NCI-H23, in the test on Hs-578T, in the test on MCF7 and with K562 was > 100 µM (inactive) each time. Moreover, the GI50 in the test on A549, with HOP-62, in the test with MOLT-4, with OVCAR-8, with DU-145 and in the test on MDA-N was > 100 µM (inactive) each time. Moreover, the figures for the GI50 with LOX IMVI, in the test with SF-268 and in the test with HCT-15 were > 100 µM (inactive), > 100 µM (inactive) and above 100 µM, respectively.
`NNC(=O)c1ccc(-n2nnc(C(=O)NN)c2C(=O)NN)cc1`: the GI50 in the test with OVCAR-3, with SN12C, in the test with SK-MEL-28, in the test with HCC 2998, in the test on NCI-H23 and in the test with MCF7 was > 100 µM (inactive) in each case. The GI50 with K562, in the test with A549, in the test on HOP-62, in the test on MOLT-4, in the test on OVCAR-8 and in the test on DU-145 was > 100 µM (inactive) in each case. For the same compound, the values for the GI50 in the test with MDA-N, in the test on LOX IMVI and in the test with HCT-15 were > 100 µM (inactive), > 100 µM (inactive) and above 100 µM, respectively.
For `C[C@@H]1[C@H](O)CC2=C(CC[C@@H](O)C2(C)C)[C@@]1(CO)CCc1ccoc1`, the GI50 with OVCAR-3, with SN12C, with SK-MEL-28, in the test on HCC 2998, with NCI-H23 and in the test with Hs-578T was > 50 µM (inactive) in each case. The GI50 in the test on MCF7 is > 50 µM (inactive); in the test on K562, > 50 µM (inactive); in the test on A549, > 50 µM (inactive); in the test on HOP-62, > 50 µM (inactive); with MOLT-4 it was 34.7 µM (inactive); in the test with OVCAR-8, > 50 µM (inactive). Moreover, the GI50 is > 50 µM (inactive) in the test with NCI-H226; > 50 µM (inactive) in the test on MDA-N; > 50 µM (inactive) with A498; > 50 µM (inactive) in the test on LOX IMVI; above 50 µM in the test on HCT-15.
On to `CCOC(=O)C(=Cc1ccccc1Br)C(=O)OCC`, for which the GI50 is 2.07 µM (inactive) in the test on OVCAR-3; 2.84 µM (inactive) in the test on SN12C; 2.4 µM (inactive) in the test with SK-MEL-28; 2.78 µM (inactive) in the test with HCC 2998; 2.48 µM (inactive) with NCI-H23; 3.4 µM (inactive) in the test with Hs-578T. The GI50 is 1.55 µM (inactive) with MCF7; 0.656 µM (active) with K562; 4 µM (inactive) in the test on A549; 2.37 µM (inactive) in the test on HOP-62; 0.32 µM (active) with MOLT-4; 2.38 µM (inactive) in the test on OVCAR-8. Besides, the GI50 in the test on DU-145 is 0.508 µM (active); with NCI-H226, 3.51 µM (inactive); with A498 it was 2.03 µM (inactive); in the test on LOX IMVI it was 0.695 µM (active); in the test with SF-268 it was 3.11 µM (inactive); in the test with HCT-15, 1.67 µM.
Consider `O=S1(=O)C(c2ccccc2)=C(O)c2ccccc21`, for which the GI50 in the test with OVCAR-3, in the test with SK-MEL-28, with HCC 2998, in the test on NCI-H23, with Hs-578T and in the test on MCF7 was > 100 µM (inactive) throughout. Moreover, the GI50 in the test on K562, with A549, with HOP-62, in the test on MOLT-4, in the test on OVCAR-8 and in the test with DU-145 was > 100 µM (inactive) in each case. Moreover, the GI50 with NCI-H226 was > 100 µM (inactive); in the test on A498, > 100 µM (inactive); in the test on LOX IMVI, > 100 µM (inactive); in the test with SF-268, > 100 µM (inactive); in the test with HCT-15, above 100 µM.
`CN(C)c1ccc(/C=N/N=C2\C(=O)Nc3c(Cl)cc(Cl)cc32)cc1`: the GI50 was 36.6 µM (inactive) in the test with OVCAR-3; > 100 µM (inactive) with SN12C; 47.3 µM (inactive) in the test with SK-MEL-28; 64 µM (inactive) in the test with HCC 2998; 46.3 µM (inactive) in the test with NCI-H23; 24.7 µM (inactive) in the test on Hs-578T. For the same compound, the GI50 in the test with MCF7 is 46.2 µM (inactive); with K562 it was 20.6 µM (inactive); in the test with A549 it was 41.9 µM (inactive); with HOP-62, 39.7 µM (inactive); in the test with MOLT-4, 16.4 µM (inactive); in the test with OVCAR-8, 93.1 µM (inactive). Also, the GI50 with NCI-H226 is > 100 µM (inactive); in the test with MDA-N, 13.5 µM (inactive); with A498, 32.2 µM (inactive); in the test with LOX IMVI, 25.6 µM (inactive); with HCT-15 it was 32.4 µM.
Turning to `NNC(=O)Cn1ccnn1`, the GI50 in the test on SN12C, in the test on SK-MEL-28, with HCC 2998, in the test with NCI-H23, in the test on MCF7 and with K562 was > 100 µM (inactive) in each case. Further, the GI50 with A549, with HOP-62, with MOLT-4, with OVCAR-8, in the test with DU-145 and with LOX IMVI was > 100 µM (inactive) each time. Also, the results for the GI50 in the test on SF-268 and with HCT-15 were > 100 µM (inactive) and above 100 µM, respectively.
Take `O=C(O)c1ccc2nc(-c3ccccn3)c(-c3ccccn3)nc2c1`: the GI50 in the test with SK-MEL-28, in the test with HCC 2998, with NCI-H23, in the test on Hs-578T, in the test with MCF7 and with K562 was > 100 µM (inactive) each time. The GI50 in the test on HOP-62, in the test with MOLT-4, with OVCAR-8, in the test with DU-145, with NCI-H226 and with A498 was > 100 µM (inactive) each time. The GI50 is > 100 µM (inactive) with LOX IMVI, > 100 µM (inactive) in the test with SF-268 and above 100 µM in the test with HCT-15.
For `O=C1CCCN(c2ccccc2)N1`, the GI50 in the test with OVCAR-3, with SN12C, in the test with SK-MEL-28, in the test with HCC 2998, in the test with K562 and in the test with A549 was > 100 µM (inactive) throughout. In addition, the GI50 in the test with HOP-62, in the test with MOLT-4, with OVCAR-8, with NCI-H226, in the test with A498 and in the test on LOX IMVI was > 100 µM (inactive) throughout. Moreover, the GI50 in the test with SF-268 was > 100 µM (inactive); in the test with HCT-15 it was above 100 µM.
